Values after ≈ are worked out from the molar mass of the structure shown.
Assays:
[1] = tested on: Mycobacterium tuberculosis; test: Antimicrobial activity against Mycobacterium bovis BCG under dormancy-inducing hypoxic condition for 14 days by MTT assay; assay type: functional; conditions: variant bovis BCG, 336 h
[2] = tested on: Mycobacterium tuberculosis; test: Antimicrobial activity against Mycobacterium bovis BCG under aerobic condition for 7 days by MTT assay; assay type: functional; conditions: variant bovis BCG, 168 h

For `COC(c1ccc(O)cc1)C1NC(=O)[C@H](CCC(N)=O)N(C)C(=O)[C@H](CC(C)C)NC(=O)[C@@H](CCCNC(=N)N)NC(=O)[C@@H]([C@@H](C)O)NC(=O)[C@H](NC(=O)C(NC(=O)[C@H](O)[C@H](O)[C@H](CCCNC(=N)N)NC(=O)[C@@H](CC(N)=O)NC(=O)C(C)C(O)C(C)CC(C)C)C(C)C(C)C(N)=O)[C@@H](C)OC(=O)[C@@H]2CCCCN2C1=O` (some centres not stated) [NEAMPHAMIDE B], the MIC [1] was 12.5 µg/mL (≈ 7.94 µM) and the MIC [2] was 6.25 µg/mL (≈ 3.97 µM).
